Test results reported in patent US20240207236A1, “COMPOUND FOR PREVENTING OR TREATING DIABETES” (ONCOCROSS CO., LTD., priority 2021, published 2024).

Legend:
Type in all cases: in vivo, mice (C57BL/6)
[1] = Body weight of mice in STZ-induced insulin-resistant diabetes model
Procedure: (§1) STZ (Sigma-aldrich, S0130, 40 mg/kg b.w., in 0.1 M citrate buffer pH 4.5) was intraperitoneally administered to 9-week-old male mice (C57BL/6) once/1 day for 5 days to perform a first disease induction. After 7 weeks of the first induction, a second induction was performed using the same method as the first induction. For 5 days of an STZ administration period for the first induction, 10% sucrose was administered as drinking water. In addition, after 14 days of the second administration, blood sugar was confirmed to confirm the induction rate, and the induced animals were separated into groups. Experimental substances (R)-4-{(R)-1-[7-(3,4,5-trimethoxy-phenyl)-[1,6] naphthyridine-5-yloxy]-ethyl}pyrrolidine-2-one (BI-1002494) and cromolyn (OC-101) were administered orally into the stomach at 10 mL/kg using an oral administration syringe (sonde) before 16:00 daily for 12 weeks at a frequency of 7 days/week at doses shown in Table 1 below, respectively, and dexamethasone was orally administered as a positive control substance.

[2] = tested on: animal model of insulin-resistant diabetes; test: Blood sugar, tail vein blood, blood sugar meter, 4 h fasting; parameters: blood sugar, Mean: unit not given here
Procedure: as §1
Before disease induction, excluding week 9 of administration of experimental substances to mice in each group of Example 1 above, after 2 weeks after the first induction (based on a first administration date), and after 6 weeks and 2 weeks of the second induction (based on the first administration date), blood was collected from the tail vein and blood sugar was measured using a blood sugar meter (Accu-Check, Roche), and fasting was performed for 4 hours from 9:30 a.m. to 1:30 p.m.

[3] = tested on: animal model of insulin-resistant diabetes; test: Blood indoxyl sulfate by LC MS/MS; conditions: 12 weeks
Procedure: as §1
(§2) After the observation period for mice of each group in Example 1 was terminated, all surviving animals were fasted in the same manner as when measuring blood sugar, and then anesthetized by inhaling isoflurane, and blood was collected from the abdominal vena cava through laparotomy. After the blood collection was completed, the veins and arteries were cut under anesthesia and exsanguinated. The collected blood was left at room temperature for 30 minutes or more and then centrifuged at 3,000 rpm for 20 minutes. Thereafter, glucose, blood urea nitrogen (BUN), and creatinine were analyzed using an automated blood biochemistry analyzer (Hitachi 3100, Hitachi Co. Ltd., Japan). Indoxyl sulfate (a substance that was mainly produced in the intestines to cause kidney damage, and a substance that caused end-stage renal failure by advancing kidney function damage in patients with renal failure during hemodialysis) was analyzed using LC MS/MS. In addition, blood insulin was analyzed according to a method represented by a commercial Mouse Insulin ELISA KIT (#AKRIN-011T, Sibayagi Co. Ltd., Japan).

[4] = Drinking water intake of mice in STZ-induced insulin-resistant diabetes model; parameters: unit not given here
Procedure: as §1

[5] = Feed intake of mice in STZ-induced insulin-resistant diabetes model; parameters: feed intake: unit not given here
Procedure: as §1

[6] = tested on: animal model of insulin-resistant diabetes; test: Blood biochemistry, automated analyzer, at end of observation; conditions: for ALT, Mean / T-CHO, Mean / AST, Mean: 12 weeks, blood
Procedure: as §1, §2

[7] = tested on: animal model of insulin-resistant diabetes; test: Blood insulin (Mouse Insulin ELISA) and HOMA-IR
Procedure: as §1, §2

[8] = after induction of diabetic disease, 12.5-50 mg/kg

COc1cc(-c2cc3ncccc3c(O[C@H](C)[C@H]3CNC(=O)C3)n2)cc(OC)c1OC [BI-1002494, (R)-4-{(R)-1-[7-(3,4,5-trimethoxy-phenyl)-[1,6]naphthyridine-5-yloxy]-ethyl}pyrrolidine-2-one]
body weight, Mean ([1]; 12.5 mg/kg/day oral, week 0): 24 g | body weight, Mean ([1]; 12.5 mg/kg/day oral, week 1): 23.7 g | body weight, Mean ([1]; 12.5 mg/kg/day oral, week 2): 23 g | body weight, Mean ([1]; 12.5 mg/kg/day oral, week 3): 24.1 g | body weight, Mean ([1]; 12.5 mg/kg/day oral, week 4): 24.3 g | body weight compared to the disease control group ([1]; 12.5 mg/kg, after week 5 of administration): statistically significantly increased | body weight, Mean ([1]; 25 mg/kg/day oral, week 0): 23.6 g | body weight, Mean ([1]; 25 mg/kg/day oral, week 1): 23.5 g | body weight, Mean ([1]; 25 mg/kg/day oral, week 2): 23.7 g | body weight, Mean ([1]; 25 mg/kg/day oral, week 3): 23.9 g | body weight, Mean ([1]; 25 mg/kg/day oral, week 4): 23.9 g | body weight, Mean ([1]; 25 mg/kg/day oral, week 5): 24 g | body weight, Mean ([1]; 25 mg/kg/day oral, week 6): 23.9 g | body weight, Mean ([1]; 25 mg/kg/day oral, week 7): 24 g | body weight compared to the disease control group ([1]; 25 mg/kg, after week 8): statistically significantly increased | body weight, Mean ([1]; 50 mg/kg/day oral, week 0): 23.9 g | body weight, Mean ([1]; 50 mg/kg/day oral, week 2): 23.8 g | body weight, Mean ([1]; 50 mg/kg/day oral, week 3): 23.8 g | body weight, Mean ([1]; 50 mg/kg/day oral, week 4): 23.8 g | body weight, Mean ([1]; 50 mg/kg/day oral, week 5): 23.6 g | body weight, Mean ([1]; 50 mg/kg/day oral, week 6): 23.8 g | body weight, Mean ([1]; 50 mg/kg/day oral, week 7): 24 g | body weight compared to the disease control group ([1]; 50 mg/kg, after week 8): statistically significantly increased | blood sugar, Mean ([2]; 12.5 mg/kg/day oral, value column 2 of 6, head prints only weeks 0, 4, 8, 10): 319.5 | blood sugar, Mean ([2]; 12.5 mg/kg/day oral, week 0): 291.1 | blood sugar, Mean ([2]; 25 mg/kg/day oral, value column 2 of 6, head prints only weeks 0, 4, 8, 10): 310.1 | blood sugar, Mean ([2]; 25 mg/kg/day oral, week 0): 301.2 | blood sugar, Mean ([2]; 50 mg/kg/day oral, value column 2 of 6, head prints only weeks 0, 4, 8, 10): 264.5 | blood sugar, Mean ([2]; 50 mg/kg/day oral, week 0): 303.7 | blood sugar compared to the positive control group ([2]; administered group, dose not specified): decreased significantly | blood sugar, summary [2, 8]: decreased in a dose-dependent manner | Indoxyl sulfate, Mean ([3]; 12.5 mg/kg/day oral): 2.2 µg/mL | Indoxyl sulfate, Mean ([3]; 25 mg/kg/day oral): 2.2 µg/mL | Indoxyl sulfate, Mean ([3]; 50 mg/kg/day oral): 1.9 µg/mL | drinking water intake, Mean ([4]; 12.5 mg/kg/day oral, week 1): 7.91 | drinking water intake, Mean ([4]; 12.5 mg/kg/day oral, week 2): 7.41 | drinking water intake, Mean ([4]; 12.5 mg/kg/day oral, week 4): 7.08 | drinking water intake, Mean ([4]; 12.5 mg/kg/day oral, week 5): 7.16 | drinking water intake, Mean ([4]; 12.5 mg/kg/day oral, week 6): 7.34 | drinking water intake, Mean ([4]; 12.5 mg/kg/day oral, week 7): 7.24 | drinking water intake, Mean ([4]; 12.5 mg/kg/day oral, week 8): 6.99 | drinking water intake, Mean ([4]; 12.5 mg/kg/day oral, week 9): 7.40 | drinking water intake, Mean ([4]; 25 mg/kg/day oral, week 0): 7.07 | drinking water intake, Mean ([4]; 25 mg/kg/day oral, week 1): 7.62 | drinking water intake, Mean ([4]; 25 mg/kg/day oral, week 3): 7.38 | drinking water intake, Mean ([4]; 25 mg/kg/day oral, week 4): 6.73 | drinking water intake, Mean ([4]; 25 mg/kg/day oral, week 5): 7.19 | drinking water intake, Mean ([4]; 25 mg/kg/day oral, week 6): 7.34 | drinking water intake, Mean ([4]; 25 mg/kg/day oral, week 7): 7.69 | drinking water intake, Mean ([4]; 25 mg/kg/day oral, week 8): 7.43 | drinking water intake, Mean ([4]; 25 mg/kg/day oral, week 9): 7.54 | drinking water intake, Mean ([4]; 25 mg/kg/day oral, week 10): 7.15 | drinking water intake, Mean ([4]; 50 mg/kg/day oral, week 0): 7.27 | drinking water intake, Mean ([4]; 50 mg/kg/day oral, week 1): 7.04 | drinking water intake, Mean ([4]; 50 mg/kg/day oral, week 3): 6.95 | drinking water intake, Mean ([4]; 50 mg/kg/day oral, week 4): 7.13 | drinking water intake, Mean ([4]; 50 mg/kg/day oral, week 5): 6.48 | drinking water intake, Mean ([4]; 50 mg/kg/day oral, week 9): 6.51 | drinking water intake, Mean ([4]; 50 mg/kg/day oral, week 10): 6.22 | feed intake compared to the disease control group ([5]; 12.5 mg/kg, after week 4 of administration): statistically significantly decreased | feed intake ([5]; 25 mg/kg/day oral, week 1): 5.60 | feed intake ([5]; 25 mg/kg/day oral, week 2): 5.58 | feed intake ([5]; 25 mg/kg/day oral, week 3): 5.26 | feed intake ([5]; 25 mg/kg/day oral, week 4): 4.99 | feed intake ([5]; 25 mg/kg/day oral, week 5): 5.15 | feed intake ([5]; 25 mg/kg/day oral, week 7): 5.04 | feed intake ([5]; 25 mg/kg/day oral, week 8): 4.95 | feed intake ([5]; 25 mg/kg/day oral, week 9): 4.62 | feed intake ([5]; 25 mg/kg/day oral, week 10): 4.63 | feed intake compared to the disease control group ([5]; 25 mg/kg, after week 6 of administration): statistically significantly decreased | feed intake ([5]; 50 mg/kg/day oral, week 1): 5.74 | feed intake ([5]; 50 mg/kg/day oral, week 4): 5.14 | feed intake ([5]; 50 mg/kg/day oral, week 7): 5.11 | feed intake ([5]; 50 mg/kg/day oral, week 9): 4.30 | feed intake ([5]; 50 mg/kg/day oral, week 10): 4.14 | feed intake compared to the disease control group ([5]; 50 mg/kg, after week 8 of administration): statistically significantly decreased | ALT, Mean ([6]; 12.5 mg/kg/day oral): 45.7 L⁻¹ | T-CHO, Mean ([6]; 12.5 mg/kg/day oral): 151.6 dL⁻¹ | ALT, Mean ([6]; 25 mg/kg/day oral): 30.9 L⁻¹ | AST, Mean ([6]; 25 mg/kg/day oral): 76.8 L⁻¹ | T-CHO, Mean ([6]; 25 mg/kg/day oral): 125.0 dL⁻¹ | ALT, Mean ([6]; 50 mg/kg/day oral): 45.8 L⁻¹ | AST, Mean ([6]; 50 mg/kg/day oral): 83.4 L⁻¹ | T-CHO, Mean ([6]; 50 mg/kg/day oral): 138.7 dL⁻¹ | dose dependence of GLU reduction ([6]; 12.5, 25, 50 mg/kg): clear dose dependence | blood glucose, summary [6, 8]: decreased in a dose-dependent manner | GLU, statistical comparison ([6]; all administered groups (12.5, 25, 50 mg/kg)): statistically significantly reduced | HOMA-IR compared with the disease control group ([7]; 25 mg/kg): statistically significantly reduced | HOMA-IR compared with the disease control group ([7]; 50 mg/kg): statistically significantly reduced | insulin resistance (HOMA-IR), summary [7, 8]: decreased in a dose-dependent manner
